# Assay results: patent US9907857B2, “Peptide having cell membrane penetrating activity” (EWHA UNIVERSITY-INDUSTRY COLLABORATION FOUNDATION, priority 2006, dated 2018)
# B1: full length TCTP: translationally controlled tumor protein, 172 amino acids, expressed with 6 histidine tag in E. coli (protein, UniProt P13693 1-172, looked up)
# chain: MIIYRDLISHDEMFSDIYKIREIADGLCLEVEGKMVSRTEGNIDDSLIGGNASAEGPEGEGTESTVITGVDIVMNHHLQETSFTKEAYKKYIKDYMKSIKGKLEEQRPERVKPFMTGAAEQIKHILANFKNYQFFIGENMNPDGMVALLDYREDGVTPYMIFFKDGLEMEKC
# modifications: full-length
# Assays:
# Type in all cases: cell-based
# HeLa cells [1] = assay: Intracellular translocation of alanine substituents of TCTP(1-9), microplate fluorescence reader; details: for decline in uptake, fluorescence intensity of TCTP (1-9) at 100 μM set to 100%: sensitivity 75 (FIG. 5); for penetrating activity of alanine substituents compared with WT TCTP(1-9): HeLa
# Procedure: N-terminus of each peptide was labeled with fluorescence dye, rhodamine and C-terminus was protected. Peptide purity (>95%) was determined by HPLC. Synthesis of peptides of present invention was requested to PEPTRON, Inc.
# (§1) HeLa cell line was propagated in DMEM supplemented with 10% FBS and 100 units/mL penicillin-streptomycin. Cells were grown in a 5% CO2 incubator at 37° C.
# (§2) HeLa cells were cultured in 48-well plate until they were 70˜80% grown up before a day of the experiment. The cells were washed with DMEM of 37° C. twice, and TCTP-derived peptides synthesized in Example 4-1) were treated to the culture medium in a dose dependent manner (0, 1, 10, 100 μM), then the cells was incubated for 15 minutes or 2 hours in an CO2 incubator at 37° C.
# After the incubation, the cells were washed in cool PBS three times and immediately measured by a microplate fluorescence reader at emission 530 nm and excitation 590 nm for a measurement of rhodamine of intracellular uptake marker. The sensitivity of reader was set at 100 as a basic, but was lowered to 75 if fluorescent signals were strong. All experiments were conducted in triplet repeats for reproducibility (FIG. 5 and FIG. 6).
# Meanwhile, when the sensitivity of KC4 plate reader was set down to 75, we could not analyze the result of cell penetrating activity at relatively low concentration of 1 or 10 μM, so sensitivity of reader was fixed at 100 (FIG. 6). At this time, because fluorescence intensity at 100 μM was very strong, we could not express in a same graph.
# HeLa cells [2] = details: treated for 48 hours; concentration not restated, 100 μM implied
# Procedure: To confirm whether cell penetrating activity of the peptides of present invention was due to membrane weakness as a result of cytotoxicity, we measured cytotoxicity as follows. HeLa cells were cultured in 96-well plate until they were 70% grown up before a day of the experiment. Control TAT 48-57 and the mutant peptides at concentrations of 0, 1, 10, 100 μM were treated to DMEM supplemented with 10% FBS for 24 and 48 hours. After 2 hours in addition of 10 μl of CCK-8 to each well, absorbance at 450 nm was measured by KC4 plate reader(FIGS. 10, 11 and 12). As a result of toxicity at 100 μM for 24 hours, cytotoxicity of SEQ ID No.: 1, TCTP(1-10) was about 14% compared with control, and cytotoxicities of the other peptides, TCTP-CPP#3, 7 and 8 were insignificant considering standard deviation. When treated for 48 hours, all peptides had no cytotoxicity at 1 and 10 μM while cytotoxicities of TAT, TCTP(1-10), TCTP-CPP#3, 7 and 8 were about 53.8, 28.3, 46.2, 8.2 and 25.6%, respectively. […] Also, all of TCTP-CPP#27-35 had no cytotoxicity at 1 μM and 10 μM but had cytotoxicity at 100 μM.
# HeLa cells [3] = assay: Cell penetrating efficiency of rhodamine-labelled TCTP-derived peptides, microplate fluorescence reader; details: for intracellular translocation, dependence on concentration: 0-100 μM, 15 minutes or 2 hours; for efficiency versus control peptide TAT at low concentration: 1 μM and 10 μM; for cell penetrating activity / translocation efficiency in comparison with TAT (words): HeLa, rhodamine-labelled peptides, overall
# Procedure: N-terminus of each peptides was labeled with fluorescence dye, rhodamine and C-terminus was protected. Peptide purity (>95%) was determined by HPLC. Synthesis of the peptides was requested to PEPTRON, Inc.
# HeLa cell line (ATCC) was propagated in DMEM (GIBCO) supplemented with 10% FBS (GIBCO) and 100 units/mL penicillin-streptomycin. Cells were grown in a 5% CO2 incubator at 37° C.
# as §2, with “2-1)” for “4-1)”, “1, 5,” for “1,”, “10, 50,” for “10,”
# After the incubation, the cells were washed in cool PBS three times and immediately measured by a microplate fluorescence reader (BIO-TEK instruments, Inc., Vermont, USA) at emission 530 nm and excitation 590 nm for a measurement of rhodamine of intracellular uptake marker. The sensitivity of reader was set at 100 as a basic mode, but was lowered to 75 if the fluorescent signals were too strong. All experiments were conducted in triplet repeats for reproducibility (FIG. 2 and FIG. 3).
# HeLa cells [4] = assay: Cell penetrating activity of FITC-labelled mutant peptides, mean fluorescence intensity by FACS; details: 2 hours, FACS
# Procedure: N-terminus of each peptide was labeled with fluorescence dye, FITC and C-terminus was protected. Peptide purity (>95%) was determined by HPLC. Synthesis of the peptides of the present invention was requested to PEPTRON, Inc.
# as §1
# HeLa cells were cultured in 6-well plate until they were 70˜80% grown up before a day of the experiment. The cells were washed with DMEM of 37° C. twice, and TCTP-derived peptides synthesized in Example 5-1) were treated to the culture medium in a dose dependent manner (0, 1, 10, 100 μM), then the cells was incubated for 2 hours in an CO2 incubator at 37° C.,
# After the incubation, the cells were washed in cool PBS two times and treated with 1 mg/ml trypsin for 15 min at 37° C. to digest peptides attached on cell membrane and washed in PBS twice again. Then, the cells were analyzed by FACS at emission 510 nm and excitation 530 nm for a measurement of FITC of intracellular uptake marker (FIGS. 7, 8 and 9). Intracellular translocation efficiency of mutant peptides, TCTP-CPP#1-35(SEQ ID Nos.: 20-54) was compared to wild type(WT), TCTP(1-10)(SEQ ID No.: 1) and control peptide, TAT(48-57).
# HeLa cells [5] = assay: Intracellular translocation of TCTP-derived peptide by fluorescence microscope; details: 2 hours
# Procedure: HeLa cells were treated with TCTP (1-9)(SEQ ID No.: 2) at a concentration of 10 μM and 100 μM by the same method of Example 2-2). […] After washing, cells on cover glass attached slide glass were observed (FIG. 4).
# BEAS-2B cell = assay: Cellular uptake of deletion forms of TCTP, western blot of supernatant and lysate; details: 15 ug/ml
# Procedure: To overexpress each of those deletion forms of TCTP (FIGS. 1a and 1c), pRSET vector that is capable of tagging 6 histidine was employed. Subcloning with DNA sequences corresponding to each deletion forms of TCTP was performed in the multicloning site of the vector. Then, the recombinant expression vector was introduced into E. coli BL21(DE3)(Novagen) or BL21(DE3)pLysS (Novagen). The expression of the deletion forms of TCTP was induced by IPTG (isopropyl (-D-thiogalactoside) for 3 hours, then the protein was isolated and purified by using Ni column which binds to polyhistidine.
# BEAS-2B cell was treated with the deletion form of TCTP at the concentration of 15 ug/ml with anti-TCTP antibodies (FIG. 1b).
# In addition, it was examined whether TCTP proteins of the present invention could be transferred to cellular interior for a short time, 5 minutes or 30 minutes. The experiment was performed by same method as the above (FIG. 1d).
molecule,measurement,setting,value
MIIYADLIS (mutant peptide based on human sequence; (1)..(9) TCTP(1-9)R5A) [SEQ ID No.: 12],"decline in uptake, fluorescence intensity of TCTP (1-9) at 100 μM set to 100%",HeLa cells [1]; 2 hours,about 50%
same,penetrating activity of alanine substituents compared with WT TCTP(1-9),HeLa cells [1],still maintained in translocation activity
MIIYRDLAS [SEQ ID No.: 15] (mutant peptide based on human sequence; (1)..(9) TCTP(1-9)I8A),"decline in uptake, fluorescence intensity of TCTP (1-9) at 100 μM set to 100%",HeLa cells [1]; 2 hours,about 50%
"GRKKRRQRRR (Human immunodeficiency virus; (1)..(10) 48-57 amino acid residue of TAT) [TAT(48-57), Control peptide, well-known PTD from HIV-1 TAT, reference compound]",cytotoxicity,HeLa cells [2],about 53.8%
same,"intracellular translocation, dependence on concentration",HeLa cells [3],transduced into cell in a dose and time-dependent manner
same,concentration at which translocation was saturated,HeLa cells [3]; 2 hour treatment (FIG. 3),≥ 1 µM
same,"mean fluorescence intensity (MFI) relative to WT, MFI of WT at 10 μM set to 1",HeLa cells [4]; peptide at 10 μM,6.1 times
same,mean fluorescence intensity (MFI) relative to WT,HeLa cells [4]; peptide at 100 μM,94.75 times
MIIYRDLIA (mutant peptide based on human sequence; (1)..(9) TCTP(1-9)S9A) [SEQ ID No.: 16],"decline in uptake, fluorescence intensity of TCTP (1-9) at 100 μM set to 100%",HeLa cells [1]; 2 hours,about 50%
same,penetrating activity of alanine substituents compared with WT TCTP(1-9),HeLa cells [1],still maintained in translocation activity
MIIYRDLAS [SEQ ID No.: 14],"decline in uptake, fluorescence intensity of TCTP (1-9) at 100 μM set to 100%",HeLa cells [1]; 2 hours,about 50%
"MIIYRDLI ((1)..(8) 1-8 amino acid residue of TCTP; listed as Homo sapiens) [SEQ ID No.: 3, Residues of TCTP(1-8)]","intracellular translocation, dependence on concentration",HeLa cells [3],translocated not in 1-10 μM but in 50-100 μM
same,efficiency versus control peptide TAT at low concentration,HeLa cells [3],"lower efficiency than control peptide, TAT"
same,cell penetrating activity / translocation efficiency in comparison with TAT (words),HeLa cells [3],excellent cell penetrating activity in comparison with conventional TAT
same,cell penetrating activity / translocation efficiency in comparison with TAT (words),HeLa cells [3]; listed as TCTP (1-8),"superior ability than well-known PTD, TAT in their translocation efficiency"
same,cell penetrating activity / translocation efficiency in comparison with TAT (words),HeLa cells [3]; listed as TCTP(1-8),more excellent penetrating activity than well-known TAT(47-58) peptide
MIIYRALIS (mutant peptide based on human sequence; (1)..(9) TCTP(1-9)D6A) [SEQ ID No.: 13],"penetrating activity, fluorescence intensity of TCTP (1-9) at 10 μM set to 1","HeLa cells [1]; 10 μM, 2 hours, sensitivity 100 (FIG. 6)",2.5 times
same,"decline in uptake, fluorescence intensity of TCTP (1-9) at 100 μM set to 100%",HeLa cells [1]; 2 hours,about 50%
same,penetrating activity of alanine substituents compared with WT TCTP(1-9),HeLa cells [1],still maintained in translocation activity
"MIIYRDLIS ((1)..(9) 1-9 amino acid residue of TCTP; listed as Homo sapiens) [SEQ ID No.: 2, Residues of TCTP(1-9)]",intracellular translocation (fluorescence microscope),HeLa cells [5]; 10 μM,weakly translocated
same,intracellular translocation (fluorescence microscope),HeLa cells [5]; 100 μM,strongly
same,intracellular distribution (fluorescence microscope),HeLa cells [5]; HeLa,distributed widely in cytoplasm and nucleus of the cell
same,"intracellular translocation, dependence on concentration",HeLa cells [3],translocated not in 1-10 μM but in 50-100 μM
same,efficiency versus control peptide TAT at low concentration,HeLa cells [3],"lower efficiency than control peptide, TAT"
same,cell penetrating activity / translocation efficiency in comparison with TAT (words),HeLa cells [3],excellent cell penetrating activity in comparison with conventional TAT
same,cell penetrating activity / translocation efficiency in comparison with TAT (words),HeLa cells [3]; listed as TCTP (1-9),"superior ability than well-known PTD, TAT in their translocation efficiency"
same,cell penetrating activity / translocation efficiency in comparison with TAT (words),HeLa cells [3]; listed as TCTP(1-9),more excellent penetrating activity than well-known TAT(47-58) peptide
B1,"protein in cell supernatant (western blot, anti-TCTP antibodies)",BEAS-2B cell; 24 hours later,disappeared 24 hours later
same,"protein in cell supernatant (western blot, anti-TCTP antibodies)",BEAS-2B cell; incubation for 1 hour,existed in cell supernatants
